One experiment concerns the target Histamine H3 receptor (Homo sapiens, UniProt Q9Y5N1). Put plainly: Antagonist activity at human histamine H3 receptor expressed in CHO cells assessed as inhibition of forskolin/R-alpha-methylhistamine-induced cAMP accumulation after 1.5 hrs by TR-FRET immunoassay. It is filed as functional, cell-based. The settings on record: for Kb: read-out: pA2 (converted). (In general: Changes in cAMP serve as a functional read-out for many G protein-coupled receptors.)

Experiment [1] deals with Histamine H4 receptor (Homo sapiens) (UniProt Q9H3N8). Nature of the experiment: Antagonist activity at human histamine H4 receptor expressed in CHO cells assessed inhibition of forskolin/histamine-induced cAMP accumulation at 1 uM after 1.5 hrs by TR-FRET immunoassay. Type of experiment: functional, cell-based.
For experiment [2] the target is unchanged. Put plainly: Agonist activity at human histamine H4 receptor expressed in CHO cells assessed increase of forskolin-induced cAMP accumulation at 1 uM after 1.5 hrs by TR-FRET immunoassay. Type of experiment: functional, cell-based.
The next experiment has as its system Rattus norvegicus. Nature of the experiment: Increase of histamine release in Wistar rat hypothalamus at 10 uM administered through dialysis membrane by HPLC-fluorometric based microdialysis relative to control. It is filed as functional.

pIC50: −log10 of the molar value. Activity calls are given as the source filed them. The calls are words filed in the database; no cut-off is given here.

Histamine H4 receptor (Homo sapiens), sequence (Q9H3N8 whole entry): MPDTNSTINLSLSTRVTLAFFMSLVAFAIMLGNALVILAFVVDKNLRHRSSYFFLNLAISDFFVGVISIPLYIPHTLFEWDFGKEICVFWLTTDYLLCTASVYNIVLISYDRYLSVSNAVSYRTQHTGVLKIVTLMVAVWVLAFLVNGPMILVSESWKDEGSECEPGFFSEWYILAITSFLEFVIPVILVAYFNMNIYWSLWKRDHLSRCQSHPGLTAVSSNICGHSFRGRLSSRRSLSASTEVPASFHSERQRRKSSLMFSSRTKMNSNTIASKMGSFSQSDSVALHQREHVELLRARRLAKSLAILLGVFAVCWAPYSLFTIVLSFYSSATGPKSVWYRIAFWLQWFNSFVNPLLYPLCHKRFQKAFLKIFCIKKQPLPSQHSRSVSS
Histamine H3 receptor, sequence (Q9Y5N1 whole entry): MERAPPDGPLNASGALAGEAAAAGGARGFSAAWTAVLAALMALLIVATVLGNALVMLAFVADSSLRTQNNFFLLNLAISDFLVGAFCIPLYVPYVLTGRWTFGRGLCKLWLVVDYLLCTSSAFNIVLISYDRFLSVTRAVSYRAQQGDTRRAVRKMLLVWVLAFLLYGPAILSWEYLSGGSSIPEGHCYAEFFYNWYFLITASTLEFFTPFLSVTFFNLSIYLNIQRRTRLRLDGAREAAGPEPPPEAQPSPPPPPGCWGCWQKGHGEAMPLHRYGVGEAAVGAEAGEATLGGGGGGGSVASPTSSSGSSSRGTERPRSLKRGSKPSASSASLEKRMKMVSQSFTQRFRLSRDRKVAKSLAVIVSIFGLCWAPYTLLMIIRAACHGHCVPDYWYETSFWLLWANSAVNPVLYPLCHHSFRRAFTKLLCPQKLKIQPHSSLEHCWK

In general, pIC50 refers to −log10 of the IC50, conventionally taken in molar units. On to `N=C(NCc1ccc(Cl)cc1)SCCCN1CCOCC1`, for which the negative logarithm of the IC50 (pIC50) at Histamine H3 receptor was 5.80.
Same read-out and setting: the value for `N=C(NCc1ccc(Cl)cc1)SCCCN1CCCC1` was 7.70; that for `N=C(NCCc1ccc(Cl)cc1)SCCCN1CCCC1` was 7.50.
With `N=C(NCCc1ccc(Cl)cc1)SCCCN1CCOCC1`, the negative logarithm of the IC50 (pIC50) at Histamine H3 receptor was 6.50.
For the compound `N=C(NCCCCN1CCCCC1)SCCCN1CCCCC1`, on Histamine H3 receptor, the negative-log IC50 (pIC50) was 8.20 and the Kb is 0.002 µM. Further, the inhibition result in experiment [1] is “inactive”. For the same compound, the result in experiment [2] was inactive.
Turning to `Cl.N=C(NCCCCCc1ccccc1)SCCCN1CCCCC1`, on Histamine H3 receptor, the negative-log IC50 (pIC50) is 7.50 and the Kb is 0.01 µM. The compound also came in with an Activity in the experiment on Rattus norvegicus of 90.5%.
Consider `N=C(NCc1ccc(Cl)cc1)SCCCN1CCNCC1`, for which the pIC50 at Histamine H3 receptor was 5.20.
On the same count and under the same terms, the value for `O=C(CCCCc1ccc(Cl)cc1)NCCCN1CCCCC1` was 6.50.
On to `N#Cc1ccc(CCCCNC(=N)SCCCN2CCCCC2)cc1`, for which, at Histamine H3 receptor, the pIC50 is 8.70 and the Kb was 0.002 µM. The inhibition entry in experiment [1] was “inactive”. Moreover, the outcome in experiment [2] was inactive.
As for `Cl.N=C(NCCc1ccc(Cl)cc1)SCCCN1CCCCC1`, on Histamine H3 receptor, the pIC50 is 8.10 and the Kb was 0.0398 µM. Further, the inhibition result in experiment [1] is “inactive”. Besides, the Activity with Rattus norvegicus came to 145.8%. In experiment [2], the outcome was inactive.
Take `CN1CCN(CCCSC(=N)NCc2ccc(Cl)cc2)CC1`: the pIC50 on Histamine H3 receptor was 5.90.
Turning to `Cl.N=C(NCc1ccc(Cl)cc1)SCCCN1CCCCC1`, at Histamine H3 receptor, the pIC50 is 7.10 and the Kb was 0.0398 µM. In the experiment with Rattus norvegicus, the Activity came to 134.4%.
As for `O=C(CCCN1CCCCC1)NCCCCc1ccc(Cl)cc1`, on Histamine H3 receptor, the pIC50 was 6.90.
For `Cl.N=C(NCCCCc1ccc(Cl)cc1)SCCCN1CCCCC1`, on Histamine H3 receptor, the pIC50 is 8.20 and the Kb is 0.000251 µM. In addition, the inhibition entry in experiment [1] was “inactive”. The compound further showed an Activity in the experiment with Rattus norvegicus of 101.2%. In experiment [2], the outcome was inactive.
On to `N=C(NCCCCc1ccc(C(F)(F)F)cc1)SCCCN1CCCCC1`, for which, on Histamine H3 receptor, the pIC50 was 7.80 and the Kb is 0.0126 µM.
Consider `Cl.N=C(NCCCc1ccc(Cl)cc1)SCCCN1CCCCC1`, for which, on Histamine H3 receptor, the negative-log IC50 (pIC50) is 8.20 and the Kb was 0.002 µM. The inhibition result in experiment [1] is “inactive”. The Activity in the experiment with Rattus norvegicus is given as 102.2%. In addition, the outcome in experiment [2] was inactive.
Regarding `N=C(NCc1ccc(Cl)cc1)SCCCc1c[nH]cn1` [CLOBENPROPIT], the Activity with Rattus norvegicus is reported as 145.6%.
Regarding `O=C(CCCN1CCCCC1)NCCCCc1ccc(C(F)(F)F)cc1`, the pIC50 at Histamine H3 receptor is 6.90.

The values above are taken from ChEMBL document CHEMBL2440068, “Synthesis and evaluation of N-alkyl-S-[3-(piperidin-1-yl)propyl]isothioureas: high affinity and human/rat species-selective histamine H(3) receptor antagonists” (Bioorg Med Chem Lett, 2013).
